One assay concerns the target EBI2 (Homo sapiens, UniProt P32249). Put plainly: Cell-based luminescent assay (EBI2 modulation).
Conditions: not given
In a few lines:
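Cells plated overnight at 37° C, then exposed to compound at 4-5 uM final with 80 nM 7a,25-OHC agonist for 60 min at 37° C. Luminescence read after 60 min detection at 25° C in the dark; values normalized to neutral and stimulator controls and plate-pattern corrected.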
EBI2, sequence (P32249 whole entry): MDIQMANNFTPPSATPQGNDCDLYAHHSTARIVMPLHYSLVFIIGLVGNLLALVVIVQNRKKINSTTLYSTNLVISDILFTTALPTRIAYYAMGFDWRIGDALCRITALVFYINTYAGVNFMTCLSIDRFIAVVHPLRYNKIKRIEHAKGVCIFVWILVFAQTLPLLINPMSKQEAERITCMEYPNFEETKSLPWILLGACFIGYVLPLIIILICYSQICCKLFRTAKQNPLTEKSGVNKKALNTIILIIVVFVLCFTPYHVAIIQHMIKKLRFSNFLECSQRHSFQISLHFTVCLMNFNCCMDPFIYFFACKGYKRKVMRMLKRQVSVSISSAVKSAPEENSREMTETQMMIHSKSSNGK
With `O=C(/C=C/c1ccccc1)N1CCN(Cc2ccc(Cl)cc2)CC1` [Compound C354, (2E)-1-{4-[(4-chlorophenyl)methyl]piperazinyl}-3-phenylprop-2-en-1-one], the concentration for half-maximal inhibition (IC50) was less than 100 nM.

Still in this assay, the particulars now being: cell-based luminescence; 7a,25-OHC final assay concentration 80 nM; 60 minutes incubation; read-out: IC50.
As to “3-[4-(trifluoromethyl)phenyl]-1-(4-{[4-(trifluoromethyl)phenyl]methyl}piperazinyl)prop-2-yn-1-one [Compound C411]”, the IC50 lay in the range of 100 to 500 nM. Still for that read-out and setting: the value for `O=C(/C=C/c1ccc(Cl)cc1F)N1CCN(C(c2ccccc2)c2ccccc2)CC1` [Compound C40] was less than 100 nM. On the same count and under the same terms, the figure for `O=C(Nc1ccc(C(F)(F)F)cc1)N1CCN(C(=O)c2cc3cc(Cl)ccc3[nH]2)CC1` [Compound C456, {4-[(5-chloroindol-2-yl)carbonyl]piperazinyl}-N-[4-(trifluoromethyl)phenyl]carboxamide] is 100 to 500 nM. On the same count and under the same terms, the figure for `O=C(C=C(Br)c1ccc(Br)cc1)N1CCN(C(c2ccccc2)c2ccccc2)CC1` [Compound C155, 1-[4-(diphenylmethyl)piperazinyl]-3-bromo-3-(4-bromophenyl)prop-2-en-1-one] is less than 100 nM. For `O=C(c1ccc(P(=O)(O)O)cc1)N1CCN(C(=O)c2cc3cc(Cl)ccc3[nH]2)CC1` [Compound C194, 5-chloroindol-2-yl 4-[(4-phosphonophenyl)carbonyl]piperazinyl ketone], the IC50 fell in the range of 500 to 5000 nM. As for `O=C(/C=C/c1ccc(Br)cc1)N1CCN(C(=O)c2ccc(C(F)(F)F)cc2)CC1` [Compound C44, (2E)-3-(4-bromophenyl)-1-(4-{[4-(trifluoromethyl)phenyl]carbonyl}piperazinyl)prop-2-en-1-one], the IC50 is less than 100 nM.

For the compound `COC(=O)c1ccc(C(=O)N2CCN(C(=O)c3cc4cc(Cl)ccc4[nH]3)CC2)cc1` [Compound C62, methyl 4-({4-[(5-chloroindol-2-yl)carbonyl]piperazinyl}carbonyl)benzoate], the IC50 is less than 100 nM. On to “3-(4-bromophenyl)-1-{4-[(4-chlorophenyl)methyl]piperazinyl}prop-2-yn-1-one [Compound C342]”, for which the IC50 was less than 100 nM. On to `COc1ccc(C(=O)N2CCN(C(=O)C#Cc3ccc(C)cc3)CC2)cc1` [Compound C8, 1-{4-[(4-methoxyphenyl)carbonyl]piperazinyl}-3-(4-methylphenyl)prop-2-yn-1-one], for which the IC50 is less than 100 nM. Still for that read-out and setting: the figure for `Cc1ccccc1/C=C/C(=O)N1CCN(C(c2ccccc2)c2ccccc2)CC1` [Compound C241, (2E)-1-[4-(diphenylmethyl)piperazinyl]-3-(2-methylphenyl)prop-2-en-1-one] is less than 100 nM; for `O=C(c1ccc(B(O)O)cc1)N1CCN(C(=O)c2cc3ccc(Br)cc3[nH]2)CC1` [Compound C382, 4-(4-(6-bromo-1H-indole-2-carbonyl)piperazine-1-carbonyl)phenylboronic acid] it is less than 100 nM. Still for that read-out and setting: the value for `S=C(c1cnc2ccccc2c1)N1CCN(C(c2ccccc2)c2ccccc2)CC1` [Compound C311, [4-(diphenylmethyl)piperazinyl]-3-quinolylmethane-1-thione] was less than 100 nM. Same read-out and setting: the figure for “3-(3,4-dichlorophenyl)-1-{4-[(4-chlorophenyl)methyl]piperazinyl}prop-2-yn-1-one [Compound C291]” is 100 to 500 nM. For the compound `O=C(c1ccccc1)C1CCN(C(=O)c2cc3cc(Cl)ccc3[nH]2)CC1` [Compound C229, 5-chloroindol-2-yl 4-(phenylcarbonyl)piperidyl ketone], the IC50 is less than 100 nM.

For `COC(=O)c1cccc(C(=O)N2CCN(C(=O)c3cc4cc(Cl)ccc4[nH]3)CC2)c1` [Compound C363, methyl 3-({4-[(5-chloroindol-2-yl)carbonyl]piperazinyl}carbonyl)benzoate], the IC50 was in the range of 100 to 500 nM. For `O=C(C#Cc1ccc(C(F)(F)F)cc1)N1CCN(Cc2ccc(Cl)cc2)CC1` [Compound C137, 1-{4-[(4-chlorophenyl)methyl]piperazinyl}-3-[4-(trifluoromethyl)phenyl]prop-2-yn-1-one], the IC50 was less than 100 nM.

As for `CC(C)c1ccc(CN2CCN(C(=O)/C=C/c3ccc(Br)cc3)CC2)cc1` [Compound C103, (2E)-3-(4-bromophenyl)-1-(4-{[4-(methylethyl)phenyl]methyl}piperazinyl)prop-2-en-1-one], the IC50 is less than 100 nM.

As for “4-bromophenyl 4-{[4-(methylethyl)phenyl]methyl}piperazinyl ketone [Compound C176]”, the IC50 was in the range of 500 to 5000 nM. The same measure, in the same setting: the value for `N#Cc1ccc(C(=O)N2CCN(C(=O)c3cc4cc(C(F)(F)F)ccc4[nH]3)CC2)cc1` [Compound C102, 4-[(4-{[5-(trifluoromethyl)indol-2-yl]carbonyl}piperazinyl)carbonyl]benzenecarbonitrile] was less than 100 nM; that for `O=C(/C=C/c1ccc(Cl)c(Cl)c1)N1CCN(Cc2ccc(Cl)cc2)CC1` [Compound C214, (2E)-3-(3,4-dichlorophenyl)-1-{4-[(4-chlorophenyl)methyl]piperazinyl}prop-2-en-1-one] was less than 100 nM. `O=C(Nc1cccc(Cl)c1)C1CCN(C(=O)c2cc3cc(Cl)ccc3[nH]2)CC1` [Compound C396, {1-[(5-chloroindol-2-yl)carbonyl](4-piperidyl)}-N-(3-chlorophenyl)carboxamide]: the IC50 is less than 100 nM.

Take `O=C(c1cc2ccccc2cn1)N1CCN(C(c2ccccc2)c2ccccc2)CC1` [Compound C468, 4-(diphenylmethyl)piperazinyl 3-isoquinolyl ketone]: the IC50 was in the range of 100 to 500 nM. With `O=C(/C=C/c1ccc(Cl)c(Cl)c1)N1CCN(Cc2ccc(C(F)(F)F)cc2)CC1` [Compound D3, (2E)-3-(3,4-dichlorophenyl)-1-(4-{[4-(trifluoromethyl)phenyl]methyl}piperazinyl)prop-2-en-1-one], the IC50 is less than 100 nM. Same read-out and setting: the figure for `COc1ccc(CN2CCN(C(=O)C#Cc3ccc(Cl)cc3)CC2)cc1` [Compound C372, 3-(4-chlorophenyl)-1-{4-[(4-methoxyphenyl)methyl]piperazinyl}prop-2-yn-1-one] is less than 100 nM. Still for that read-out and setting: the value for `O=C(c1ccc(Br)cc1)N1CCN(Cc2ccc(F)cc2)CC1` [Compound C165, 4-bromophenyl 4-[(4-fluorophenyl)methyl]piperazinyl ketone] was 500 to 5000 nM. Still for that read-out and setting: the value for `Cn1c(C(=O)N2CCN(C(c3ccccc3)c3ccccc3)CC2)cc2ccccc21` [Compound C242, 4-(diphenylmethyl)piperazinyl 1-methylindol-2-yl ketone] was less than 100 nM. On to `O=C(/C=C/c1ccccc1)N1CCN(Cc2ccccc2Br)CC1` [Compound C344, (2E)-1-{4-[(2-bromophenyl)methyl]piperazinyl}-3-phenylprop-2-en-1-one], for which the IC50 was less than 100 nM.

Regarding `O=C(c1ccc2cc3ccccc3cc2c1)N1CCN(C(c2ccccc2)c2ccccc2)CC1` [Compound C301, 2-anthryl 4-(diphenylmethyl)piperazinyl ketone], the IC50 is less than 100 nM. The same measure, in the same setting: the figure for `O=C(/C=C/c1ccc(Br)cc1)N1CCN(C(=O)c2ccccc2)CC1` [Compound C14, (2E)-3-(4-bromophenyl)-1-[4-(phenylcarbonyl)piperazinyl]prop-2-en-1-one] is less than 100 nM; for `O=C(Nc1ccc(F)c(C(F)(F)F)c1)N1CCN(C(=O)c2cc3cc(Cl)ccc3[nH]2)CC1` [Compound C450, {4-[(5-chloroindol-2-yl)carbonyl]piperazinyl}-N-[4-fluoro-3-(trifluoromethyl)phenyl]carboxamide] it is 100 to 500 nM.

The values above are taken from patent publication US9776979B2, “EBI2 modulators” (Sanford-Burnham Medical Research Institute, priority 2013, dated 2017).
